From PMC6643834 (ACS Omega, 2018) come the findings set out here.

In one test the test system is class Ia RNR (NrdA). The test is described as follows: NrdA expression by Western immunoblot. The format is cell-based, P. aeruginosa PAO1. The note with it: 5 mM for 3 h, compared to the negative control.
Test [1] has as its system P. aeruginosa continuous-flow biofilms. In words: Flow cell biofilm assay. As to conditions: COMSTAT analysis. The format is cell-based, Pseudomonas aeruginosa.
The test system of test [2] is P. aeruginosa PAO1 static biofilms. The test is described as follows: Static biofilm assay, P. aeruginosa. Format: cell-based, Pseudomonas aeruginosa.
Test [3] deals with P. aeruginosa purine deoxyribonucleotide levels (bacterial RNR). The test is described as follows: DPA assay for dNTP quantification. The note with it: 5 mM for 3 h, exponential phase, compared to negative control. Format: cell-based, P. aeruginosa PAO1.
The subject of a further test is Staph. aureus biofilm. In words: Static biofilm assay, Staph. aureus. The format is cell-based, Staphylococcus aureus. The note with it: treating with CIP.
The subject of test [4] is B. anthracis Sterne 7700 pXO1–/pXO2–. In words: microbe, parasite or virus in culture. Format: cell-based. The note with it: Bacillus anthracis, 8 h, read-out: MIC50 Gram-positive Bant.

`Cc1cc(F)ccc1CNO` [Compound 12, N-(4-Fluoro-2-methylbenzyl)hydroxylamine]: in the test with class Ia RNR (NrdA), the “induction of NrdA expression (fold)” value was 3. In addition, the “decrease of biomass and average thickness” value in test [1] is recorded as “more than 30%”. In addition, the “reduction of established biofilm” value in test [2] (after 72 h of treatment, highest concentrations) is “above 55%”. Besides, the “reduction of dNTP levels” value in test [3] is given as 67.50%.
As for `O=C(O)c1cn(C2CC2)c2cc(N3CCNCC3)c(F)cc2c1=O` [CIP, ciprofloxacin, reference compound], the “reduction of preestablished biofilm” value in test [2] (CIP 0.5 μg/mL, positive control) was “more than 85%”. In the test with Staph. aureus biofilm, the “reduction of Staph. aureus biofilm” value is recorded as “around 60%”.
Take `COc1ccc(CNO)c(C)c1` [Compound 17, N-(4-Methoxy-2-methylbenzyl)hydroxylamine]: in test [4], the MIC50 is below 15 µg/mL.
Take `NC(=O)NO` [HU, hydroxyurea, reference compound]: the “reduction of dNTP levels” value in test [3] was determined as 65.45%.
